Laboratory results published in ChEMBL document CHEMBL1147799, “An integrated in silico 3D model-driven discovery of a novel, potent, and selective amidosulfonamide 5-HT1A agonist (PRX-00023) for the treatment of anxiety and depression” (J Med Chem, 2006).
Activity calls are given as the source filed them. The calls are words filed in the database; no cut-off is given here.

Legend:
[1] = Toxicity in po dosed Sprague-Dawley rat; format: organism-based; settings: in vivo
[2] = Half life in Beagle dog at 3 mg/kg, po; format: ADME, organism-based, Canis lupus familiaris; parameters: dose 3 mg/kg, route oral; settings: in vivo
[3] = target: T1, Voltage-gated inwardly rectifying potassium channel KCNH2 (Homo sapiens, UniProt Q12809); assay: Inhibition of hERG potassium channel in HEK293 cells by patch clamp assay
[4] = target: 5-hydroxytryptamine receptor 2B (Homo sapiens, UniProt P41595); assay: Binding affinity to 5HT2B receptor by radioligand binding assay
Somatostatin receptor = assay: Binding affinity to somatostatin receptor by radioligand binding assay; format: protein assay
[5] = Binding affinity to galanin receptor by radioligand binding assay
[6] = Binding affinity to neuropeptide receptor by radioligand binding assay
[7] = target: 5-hydroxytryptamine receptor 7 (Homo sapiens, UniProt P34969)
Description: Binding affinity to 5HT7 receptor by radioligand binding assay

[8] = target: 5-hydroxytryptamine receptor 2A (Homo sapiens, UniProt P28223)
Description: Binding affinity to 5HT2A receptor by radioligand binding assay

[9] = target: Endothelin receptor, ET-A/ET-B (Homo sapiens, UniProt P24530+P25101); assay: Binding affinity to endothelin receptor by radioligand binding assay; format: protein assay
Mus musculus [10] = assay: Decrease in stress-induced hyperthermia in 129S6/SvEvTac mouse at 20 mg/kg, po; format: functional, organism-based; parameters: dose 20 mg/kg
[11] = target: Serotonin 3 receptor (5HT3) (Mus musculus, UniProt Q9JHJ5+P23979); assay: Binding affinity to mouse 5HT3 receptor by radioligand binding assay; format: protein assay
[12] = Binding affinity to sodium channel by radioligand binding assay
Cytochrome P450 1A2 = Cytochrome P450 1A2 (Homo sapiens, UniProt P05177); assay: Inhibition of human recombinant cytochrome P450 1A2; format: ADME; settings: recombinant enzyme
[13] = Oral bioavailability in Sprague-Dawley rat at 3 mg/kg, po and 1 mg/kg, iv; format: ADME, organism-based; settings: in vivo
[14] = Cmax in Sprague-Dawley rat at 3 mg/kg, po; format: ADME, organism-based; parameters: dose 3 mg/kg, route oral; settings: in vivo
[15] = target: Adrenergic receptor alpha-1 (Rattus norvegicus) (UniProt P15823+P23944+P43140); assay: Displacement of [3H]prazosin from Adrenergic alpha-1 receptor in rat cerebral cortex cells at 1 uM; format: cell-based
[16] = Toxicity in po dosed Beagle dog; format: organism-based, Canis lupus familiaris; settings: in vivo
[17] = Binding affinity to bradykinin receptor by radioligand binding assay
[18] = Binding affinity to melanocortin receptor by radioligand binding assay
Homo sapiens = species: Homo sapiens; assay: Transient increase in prolactin level in human serum at greater than 30 mg; format: functional, organism-based
Adrenergic receptor beta = Adrenergic receptor beta (Homo sapiens, UniProt P08588+P07550+P13945); assay: Binding affinity to beta adrenergic receptor by radioligand binding assay; format: protein assay
[19] = target: 5-hydroxytryptamine receptor 2C (Homo sapiens, UniProt P28335); assay: Binding affinity to human 5HT2C receptor by radioligand binding assay
[20] = Half life in human liver microsome at 5 uM; format: ADME; settings: liver microsomes
Mus musculus [21] = assay: Decrease in basal rectal temperature in stress-induced hyperthermic 129S6/SvEvTac mouse at 20 mg/kg, po; format: functional, organism-based; parameters: dose 20 mg/kg
Dopamine receptor = assay: Binding affinity to dopamine receptor by radioligand binding assay; format: protein assay
[22] = target: T1, Voltage-gated inwardly rectifying potassium channel KCNH2; assay: Binding affinity to potassium channel by radioligand binding assay
Cytochrome P450 2C9 = Cytochrome P450 2C9 (Homo sapiens, UniProt P11712); assay: Inhibition of human recombinant cytochrome P450 2C9; format: ADME; settings: recombinant enzyme
[23] = Cmax in Beagle dog at 3 mg/kg, po; format: ADME, organism-based, Canis lupus familiaris; parameters: dose 3 mg/kg, route oral; settings: in vivo
[24] = Ratio of drug level in brain against serum in Sprague-Dawley rat at 3 mg/kg, po or 1 mg/kg, iv after 1 hr; format: ADME, organism-based; settings: read-out: BBR
Angiotensin II receptor = Angiotensin II receptor (Homo sapiens, UniProt P30556+P50052); assay: Binding affinity to angiotensin2 receptor by radioligand binding assay; format: protein assay
[25] = target: 5-hydroxytryptamine receptor 1A (Rattus norvegicus, UniProt P19327); assay: Binding affinity to 5HT1A receptor in rat cerebral cortex by radioligand binding assay; format: tissue-based
[26] = Binding affinity to histamine receptor by radioligand binding assay
[27] = target: GABA-A receptor; anion channel; assay: Binding affinity to GABA receptor by radioligand binding assay; format: protein-complex assay
[28] = target: 5-hydroxytryptamine receptor 4 (Homo sapiens, UniProt Q13639); assay: Binding affinity to human 5HT4e receptor by radioligand binding assay
[29] = target: 5-hydroxytryptamine receptor 1B (Rattus norvegicus, UniProt P28564); assay: Binding affinity to 5HT1B receptor in rat cerebral cortex by radioligand binding assay; format: tissue-based
[30] = Terminal half life in human; format: ADME, organism-based; settings: in vivo
D(2) dopamine receptor = D(2) dopamine receptor (Homo sapiens, UniProt P14416); assay: Binding affinity to D2 receptor by radioligand binding assay
[31] = target: Sodium-dependent dopamine transporter (Homo sapiens, UniProt Q01959); assay: Binding affinity to dopamine transporter by radioligand binding assay
[32] = target: Opioid receptors; mu/kappa/delta (Homo sapiens, UniProt P41145+P41143+P35372); assay: Binding affinity to opioid receptor by radioligand binding assay; format: protein assay
[33] = Protein binding in human serum at 2 uM; format: ADME, organism-based; settings: read-out: PPB (converted)
[34] = Binding affinity to neurokinin receptor by radioligand binding assay
[35] = target: 5-hydroxytryptamine receptor 6 (Homo sapiens, UniProt P50406); assay: Binding affinity to human 5HT6 receptor by radioligand binding assay
[36] = Protein binding in human serum at 10 uM; format: ADME, organism-based; settings: read-out: PPB (converted)
[37] = Half life in human liver S9 fraction at 5 uM; format: ADME
Nociceptin receptor = Nociceptin receptor (Homo sapiens, UniProt P41146); assay: Binding affinity to orphanin receptor by radioligand binding assay
[38] = target: T2, Alpha-2A adrenergic receptor (Rattus norvegicus) (UniProt P22909); assay: Displacement of [3H]RX 821002 from Adrenergic alpha-2a receptor in rat cerebral cortex cells at 1 uM; format: cell-based
T2 sequence (whole entry): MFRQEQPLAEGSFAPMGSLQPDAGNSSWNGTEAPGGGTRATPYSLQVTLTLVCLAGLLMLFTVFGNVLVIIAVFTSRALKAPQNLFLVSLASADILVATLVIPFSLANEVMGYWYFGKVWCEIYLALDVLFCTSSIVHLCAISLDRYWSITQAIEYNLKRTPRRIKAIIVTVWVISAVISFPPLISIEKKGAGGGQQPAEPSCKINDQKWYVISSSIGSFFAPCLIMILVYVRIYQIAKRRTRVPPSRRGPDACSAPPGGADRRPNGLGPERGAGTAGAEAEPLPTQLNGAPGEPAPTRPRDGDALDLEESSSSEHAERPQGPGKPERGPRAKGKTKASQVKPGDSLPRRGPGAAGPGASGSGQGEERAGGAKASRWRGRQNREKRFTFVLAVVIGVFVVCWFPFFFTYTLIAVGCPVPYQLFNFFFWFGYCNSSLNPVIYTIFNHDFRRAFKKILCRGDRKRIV

[39] = Half life in Sprague-Dawley rat at 3 mg/kg, po; format: ADME, organism-based; parameters: dose 3 mg/kg, route oral; settings: in vivo

T1 sequence (Q12809 whole entry): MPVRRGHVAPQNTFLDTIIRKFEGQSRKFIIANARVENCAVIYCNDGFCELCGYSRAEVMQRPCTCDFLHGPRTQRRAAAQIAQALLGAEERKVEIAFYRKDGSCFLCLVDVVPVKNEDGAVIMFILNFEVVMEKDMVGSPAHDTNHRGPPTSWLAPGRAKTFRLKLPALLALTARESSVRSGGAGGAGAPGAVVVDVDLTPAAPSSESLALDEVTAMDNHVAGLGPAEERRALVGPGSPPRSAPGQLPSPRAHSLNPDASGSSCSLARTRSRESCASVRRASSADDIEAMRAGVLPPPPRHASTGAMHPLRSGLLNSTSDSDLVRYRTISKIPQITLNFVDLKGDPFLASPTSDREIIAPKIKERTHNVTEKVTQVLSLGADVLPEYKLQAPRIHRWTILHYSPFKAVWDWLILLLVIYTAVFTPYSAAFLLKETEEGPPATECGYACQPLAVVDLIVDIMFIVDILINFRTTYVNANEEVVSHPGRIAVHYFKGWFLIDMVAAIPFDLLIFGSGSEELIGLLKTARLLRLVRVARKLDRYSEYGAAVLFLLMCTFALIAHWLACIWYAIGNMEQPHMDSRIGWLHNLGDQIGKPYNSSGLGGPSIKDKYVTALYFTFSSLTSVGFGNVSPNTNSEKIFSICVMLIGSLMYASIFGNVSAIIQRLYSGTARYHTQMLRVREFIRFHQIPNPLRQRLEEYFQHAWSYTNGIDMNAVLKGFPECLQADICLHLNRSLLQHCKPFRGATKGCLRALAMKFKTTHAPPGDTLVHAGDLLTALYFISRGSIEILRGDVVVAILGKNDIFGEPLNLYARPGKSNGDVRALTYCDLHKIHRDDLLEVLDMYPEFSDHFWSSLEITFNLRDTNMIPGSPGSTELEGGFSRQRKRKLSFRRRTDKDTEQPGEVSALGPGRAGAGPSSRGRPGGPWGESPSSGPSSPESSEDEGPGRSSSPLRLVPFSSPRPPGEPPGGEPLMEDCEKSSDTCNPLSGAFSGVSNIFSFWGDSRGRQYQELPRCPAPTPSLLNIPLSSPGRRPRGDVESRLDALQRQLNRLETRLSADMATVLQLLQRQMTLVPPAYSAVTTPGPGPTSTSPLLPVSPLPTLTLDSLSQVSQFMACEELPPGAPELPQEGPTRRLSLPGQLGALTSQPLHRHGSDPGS
Sequence of Cytochrome P450 2C9 (P11712 whole entry): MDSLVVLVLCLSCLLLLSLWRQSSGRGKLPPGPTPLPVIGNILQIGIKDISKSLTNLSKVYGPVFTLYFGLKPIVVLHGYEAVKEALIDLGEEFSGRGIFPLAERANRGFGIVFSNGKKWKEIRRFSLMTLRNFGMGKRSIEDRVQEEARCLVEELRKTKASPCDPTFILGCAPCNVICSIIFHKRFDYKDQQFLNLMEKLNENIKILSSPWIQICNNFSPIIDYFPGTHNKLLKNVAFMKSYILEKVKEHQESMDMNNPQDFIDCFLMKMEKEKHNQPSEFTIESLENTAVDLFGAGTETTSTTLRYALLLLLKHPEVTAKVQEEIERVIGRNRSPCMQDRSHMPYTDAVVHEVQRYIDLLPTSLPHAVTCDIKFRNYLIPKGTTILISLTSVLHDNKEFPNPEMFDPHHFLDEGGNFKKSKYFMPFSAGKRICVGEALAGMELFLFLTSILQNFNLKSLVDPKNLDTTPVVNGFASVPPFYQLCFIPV
Sequence of 5-hydroxytryptamine receptor 2A (P28223 whole entry): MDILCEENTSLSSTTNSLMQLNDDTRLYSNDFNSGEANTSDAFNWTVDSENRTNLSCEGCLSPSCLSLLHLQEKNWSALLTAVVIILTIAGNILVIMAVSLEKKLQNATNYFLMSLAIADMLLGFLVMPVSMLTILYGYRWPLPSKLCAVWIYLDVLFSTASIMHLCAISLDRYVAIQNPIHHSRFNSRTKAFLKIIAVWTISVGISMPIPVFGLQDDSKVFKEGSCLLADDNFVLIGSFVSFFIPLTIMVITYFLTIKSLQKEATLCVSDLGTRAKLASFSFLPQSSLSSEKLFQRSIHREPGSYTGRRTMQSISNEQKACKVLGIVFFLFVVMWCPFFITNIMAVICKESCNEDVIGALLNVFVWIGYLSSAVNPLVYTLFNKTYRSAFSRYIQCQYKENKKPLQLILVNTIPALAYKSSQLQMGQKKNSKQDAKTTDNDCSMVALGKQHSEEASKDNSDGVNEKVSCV
Sequence of D(2) dopamine receptor (P14416 whole entry): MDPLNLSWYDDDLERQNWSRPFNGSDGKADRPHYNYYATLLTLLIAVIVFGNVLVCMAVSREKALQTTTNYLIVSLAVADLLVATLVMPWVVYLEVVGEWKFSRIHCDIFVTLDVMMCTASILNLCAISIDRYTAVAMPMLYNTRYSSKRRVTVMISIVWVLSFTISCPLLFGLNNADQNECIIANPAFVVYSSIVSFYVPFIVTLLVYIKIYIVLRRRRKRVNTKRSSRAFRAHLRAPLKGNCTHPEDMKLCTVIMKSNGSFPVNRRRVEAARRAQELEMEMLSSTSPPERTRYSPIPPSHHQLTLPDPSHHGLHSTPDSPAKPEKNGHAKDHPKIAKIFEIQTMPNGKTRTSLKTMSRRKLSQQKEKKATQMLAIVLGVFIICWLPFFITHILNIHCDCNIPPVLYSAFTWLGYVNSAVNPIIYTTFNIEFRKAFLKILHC
Sequence of 5-hydroxytryptamine receptor 6 (P50406 whole entry): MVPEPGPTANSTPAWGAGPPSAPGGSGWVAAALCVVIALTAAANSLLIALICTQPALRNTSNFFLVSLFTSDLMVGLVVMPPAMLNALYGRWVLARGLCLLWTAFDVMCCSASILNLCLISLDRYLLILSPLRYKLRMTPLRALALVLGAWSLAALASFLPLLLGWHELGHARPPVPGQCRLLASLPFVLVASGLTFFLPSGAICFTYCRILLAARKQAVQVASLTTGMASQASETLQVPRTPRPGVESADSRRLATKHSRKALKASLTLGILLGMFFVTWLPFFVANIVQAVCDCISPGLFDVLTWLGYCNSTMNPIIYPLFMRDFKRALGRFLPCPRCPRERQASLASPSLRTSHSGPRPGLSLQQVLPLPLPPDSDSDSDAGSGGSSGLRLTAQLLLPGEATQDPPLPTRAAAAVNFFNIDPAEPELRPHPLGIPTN
Sequence of 5-hydroxytryptamine receptor 1B (P28564 whole entry): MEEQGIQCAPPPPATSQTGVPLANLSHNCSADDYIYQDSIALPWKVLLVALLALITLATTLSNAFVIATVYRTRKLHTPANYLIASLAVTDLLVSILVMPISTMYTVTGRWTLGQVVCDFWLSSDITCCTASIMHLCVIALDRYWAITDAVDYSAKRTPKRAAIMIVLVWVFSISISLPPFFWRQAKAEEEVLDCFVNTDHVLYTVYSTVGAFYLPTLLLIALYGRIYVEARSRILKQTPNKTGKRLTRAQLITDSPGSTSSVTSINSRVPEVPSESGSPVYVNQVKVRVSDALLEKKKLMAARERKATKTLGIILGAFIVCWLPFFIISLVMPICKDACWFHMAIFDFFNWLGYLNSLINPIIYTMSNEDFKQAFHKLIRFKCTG
Sequence of 5-hydroxytryptamine receptor 2C (P28335 whole entry): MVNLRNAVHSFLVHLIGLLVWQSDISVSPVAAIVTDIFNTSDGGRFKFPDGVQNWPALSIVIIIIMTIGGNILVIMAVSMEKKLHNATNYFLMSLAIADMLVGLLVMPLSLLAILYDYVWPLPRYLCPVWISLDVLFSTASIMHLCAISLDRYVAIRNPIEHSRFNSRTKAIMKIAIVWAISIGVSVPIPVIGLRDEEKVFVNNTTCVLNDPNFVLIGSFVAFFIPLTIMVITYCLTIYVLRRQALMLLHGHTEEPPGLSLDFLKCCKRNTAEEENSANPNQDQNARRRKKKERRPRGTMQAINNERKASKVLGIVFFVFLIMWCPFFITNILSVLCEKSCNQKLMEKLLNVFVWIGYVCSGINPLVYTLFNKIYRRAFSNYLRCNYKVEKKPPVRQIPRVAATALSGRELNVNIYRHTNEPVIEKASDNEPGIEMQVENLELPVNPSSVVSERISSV
Sequence of 5-hydroxytryptamine receptor 2B (P41595 whole entry): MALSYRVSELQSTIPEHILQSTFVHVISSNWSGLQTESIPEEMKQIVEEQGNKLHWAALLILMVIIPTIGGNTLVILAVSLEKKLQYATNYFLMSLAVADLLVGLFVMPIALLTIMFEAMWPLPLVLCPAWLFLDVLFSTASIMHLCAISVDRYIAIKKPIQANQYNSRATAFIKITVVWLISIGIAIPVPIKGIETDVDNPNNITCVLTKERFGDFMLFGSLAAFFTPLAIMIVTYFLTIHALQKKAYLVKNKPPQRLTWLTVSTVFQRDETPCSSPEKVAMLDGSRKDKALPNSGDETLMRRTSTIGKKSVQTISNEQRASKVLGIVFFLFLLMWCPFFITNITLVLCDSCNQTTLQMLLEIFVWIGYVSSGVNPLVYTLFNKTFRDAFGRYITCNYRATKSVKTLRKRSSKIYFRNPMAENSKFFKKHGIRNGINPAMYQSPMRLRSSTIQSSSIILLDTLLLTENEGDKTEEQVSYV
Sequence of 5-hydroxytryptamine receptor 7 (P34969 whole entry): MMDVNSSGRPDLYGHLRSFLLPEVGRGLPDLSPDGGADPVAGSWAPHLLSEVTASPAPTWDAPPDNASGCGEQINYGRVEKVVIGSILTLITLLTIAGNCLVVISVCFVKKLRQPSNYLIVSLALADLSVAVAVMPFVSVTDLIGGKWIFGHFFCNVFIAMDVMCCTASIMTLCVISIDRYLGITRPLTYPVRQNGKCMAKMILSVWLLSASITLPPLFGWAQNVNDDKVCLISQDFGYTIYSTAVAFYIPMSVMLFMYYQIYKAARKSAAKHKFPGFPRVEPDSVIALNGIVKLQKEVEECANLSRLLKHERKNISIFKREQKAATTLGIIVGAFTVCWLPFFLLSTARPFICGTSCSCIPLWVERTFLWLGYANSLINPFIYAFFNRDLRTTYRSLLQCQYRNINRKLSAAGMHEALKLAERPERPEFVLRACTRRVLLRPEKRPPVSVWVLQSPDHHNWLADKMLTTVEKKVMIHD

Work on CC(=O)Nc1cccc(N2CCN(CCCCNS(=O)(=O)CC3CCCCC3)CC2)c1 [NALUZOTAN] yielded an MTD [1] of 300 mg/kg, a half-life [2] of 1.1 h and an IC50 [3] of 3.8 µM. The Ki [4] was greater than 5 µM, the Ki (Somatostatin receptor) was greater than 2 µM and the Ki [5] was greater than 2 µM. The Ki [6] was greater than 2 µM, the Ki [7] was 0.7 µM and the Ki [8] was greater than 2 µM. For the same compound, the Ki [9] was greater than 2 µM, the Activity (Mus musculus [10]) was “Active” and the Ki [11] was greater than 5 µM. For the same compound, the Ki [12] was greater than 2 µM, the Inhibition (Cytochrome P450 1A2) was “Not Active” and the bioavailability [13] was 11%. The Cmax [14] was 24 ng/mL, the Activity [15] was 47% and the MTD [16] was 600 mg/kg. The Ki [17] was greater than 2 µM, the Ki [18] was greater than 2 µM and the Activity (Homo sapiens) was “Active”. The Ki (Adrenergic receptor beta) was greater than 2 µM, the Ki [19] was greater than 5 µM and the half-life at 5 µM [20] was 0.467 h. The Activity (Mus musculus [21]) was “Active”, the Ki (Dopamine receptor) was greater than 2 µM and the Ki [22] was greater than 2 µM. For the same compound, the Inhibition (Cytochrome P450 2C9) was “Not Active”, the Cmax [23] was 174 ng/mL and the Kp at 1 h [24] was 0.5. For the same compound, the Ki (Angiotensin II receptor) was greater than 2 µM, the Ki [25] was 0.017 µM and the Ki [26] was greater than 2 µM. It also gave a Ki [27] greater than 2 µM, a Ki [28] greater than 5 µM and a Ki [29] greater than 2 µM. The half-life [30] was greater than 10 h, the Ki (D(2) dopamine receptor) was greater than 2 µM and the Ki [31] was greater than 2 µM. For the same compound, the Ki [32] was greater than 2 µM, the fraction unbound at 2 µM [33] was 0.08 and the Ki [34] was greater than 2 µM. The Ki [35] was greater than 5 µM, the fraction unbound at 10 µM [36] was 0.08 and the half-life at 5 µM [37] was 1.08 h. It also gave a Ki (Nociceptin receptor) greater than 2 µM, an Activity [38] of 0% and a half-life [39] of 2 h.
